Source: ChEMBL document CHEMBL2086262, “Ligand-based designing, in silico screening, and biological evaluation of new potent fructose-1,6-bisphosphatase (FBPase) inhibitors” (Eur J Med Chem, 2012)

Test: Inhibition of human recombinant FBPase using fructose-1,6-biphosphate as substrate incubated for 3 mins prior to substrate addition by spectrophotometric analysis

SMILES	IC50
CCOc1cc2ncnc(Nc3cccc(-c4ccc(C)cc4)c3)c2cc1OCC	> 10000 nM
CCOc1ccc(-c2csc(C)n2)cc1Nc1ncnc2cc(OCC)c(OCC)cc12	1800 nM
CCOc1cc2ncnc(Nc3cc(-c4csc(C)n4)ccc3Br)c2cc1OCC	> 10000 nM
COc1cc2c(Nc3cccc(-c4csc(C)n4)c3)ncnc2cc1OC(C)(C)C	1300 nM
Nc1ncnc2c1ncn2[C@@H]1O[C@H](COP(=O)(O)O)[C@@H](O)[C@H]1O [ADENOSINE PHOSPHATE]	12300 nM
CCOc1cc2nc(CN(CC)CC)nc(Nc3cccc(Br)c3)c2cc1OCC	> 10000 nM
CC(C)Oc1ccc2ncnc(Nc3cccc(Br)c3)c2c1	> 10000 nM
COCCOc1ccc2ncnc(Nc3cccc(Br)c3)c2c1	2900 nM
CN(C)C(=O)CCc1c(C(=O)O)[nH]c2cc(Cl)cc(Cl)c12	1700 nM
CCOc1cc2ncnc(Nc3cccc(-c4csc(C(=O)O)n4)c3)c2cc1OCC	> 10000 nM
CCOc1cc2nc(CN(C)C)nc(Nc3cccc(-c4csc(C)n4)c3)c2cc1OCC	2000 nM
CCOc1cc2ncnc(Nc3cccc(Br)c3)c2cc1[N+](=O)[O-]	3600 nM
CCCCOc1ccc2ncnc(Nc3cccc(Br)c3)c2c1	> 10000 nM
CCOc1cc2ncnc(Nc3cccc(-c4coc(C)n4)c3)c2cc1OCC	500 nM
CCOc1cc2ncnc(Nc3cccc(-c4csc(Cc5ccccc5)n4)c3)c2cc1OCC	> 10000 nM
COc1cc(-c2ccc(OC)nc2)c2oc(NS(=O)(=O)c3cc(Cl)ccc3Cl)nc2c1	3500 nM
O=C(O)Cc1c(C(=O)O)[nH]c2cc(Cl)cc(Cl)c12	> 10000 nM
Cc1nc(-c2cccc(Nc3ncnc4cc5c(cc34)OCCO5)c2)cs1	> 10000 nM
CCOc1cc2ncnc(Nc3cccc(-c4csc(N)n4)c3)c2cc1OCC	3500 nM
COc1cc2ncnc(Nc3cccc(-c4csc(C)n4)c3)c2cc1OC	4400 nM
CCOc1cc2nc(CS(C)(=O)=O)nc(Nc3cccc(Br)c3)c2cc1OCC	> 10000 nM
CCOc1cc2ncnc(Nc3cc(-c4csc(C)n4)ccc3OC)c2cc1OCC	990 nM
CCOc1cc2nc(CCl)nc(Nc3cccc(Br)c3)c2cc1OCC	> 10000 nM
CCCOc1cc2ncnc(Nc3cccc(-c4csc(C)n4)c3)c2cc1OCC	1000 nM

SMILES	IC50
CCOc1cc2ncnc(Nc3cccc(-c4csc(OC)n4)c3)c2cc1OCC	780 nM
CCOc1cc2nc(-n3ccnc3)nc(Nc3cccc(-c4csc(C)n4)c3)c2cc1OCC	770 nM
CCOc1cc2c(Nc3cccc(-c4csc(C)n4)c3)ncnc2cc1OC(C)C	420 nM
C#Cc1cccc(Nc2ncnc3cc(OCC)c(OCC)cc23)c1	2400 nM
CCOc1cc2ncnc(Nc3cccc(-c4nccs4)c3)c2cc1OCC	380 nM
CCOC(=O)c1[nH]c2cc(Cl)cc(Cl)c2c1CCC(=O)O	> 10000 nM
CCOc1cc2ncnc(Nc3cc(-c4csc(C)n4)c(F)cc3F)c2cc1OCC	> 10000 nM
CCOc1cc2ncnc(Nc3ccc(F)c(-c4csc(C)n4)c3)c2cc1OCC	610 nM
CCOc1cc2ncnc(Nc3cccc(-c4csc(N(C)C)n4)c3)c2cc1OCC	8000 nM
CCOc1cc2ncnc(Nc3cccc(-c4csc(-c5ccccc5)n4)c3)c2cc1OCC	> 10000 nM
Cc1nc(-c2cccc(Nc3ncnc4ccccc34)c2)cs1	> 10000 nM
CCOc1cc2ncnc(Nc3ccc(Cl)c(Cl)c3)c2cc1OCC	> 10000 nM
CCOc1cc2ncnc(Nc3cccc(-c4csc(COC)n4)c3)c2cc1OCC	7300 nM
CCOc1cc2ncnc(Nc3cccc(-c4csc(NC)n4)c3)c2cc1OCC	800 nM
CCOc1cc2ncnc(Nc3ccc(F)c(-c4csc(C)n4)c3F)c2cc1OCC	> 10000 nM
CCOc1cc2ncnc(Nc3cccc(-c4csc(C)n4)c3)c2cc1OCC	≥ 640 nM
CN(C)C(=O)c1[nH]c2cc(Cl)cc(Cl)c2c1CCC(=O)O	> 10000 nM
CCOc1cc2ncnc(Nc3ccc(Cl)c(C)c3)c2cc1OCC	> 10000 nM
COc1cc2c(Nc3cccc(-c4csc(C)n4)c3)ncnc2cc1OC(C)C	2300 nM
CCOc1cc2ncnc(Nc3cccc(-c4cc[nH]n4)c3)c2cc1OCC	730 nM
COc1cc2ncnc(Nc3cccc(Br)c3)c2cc1[N+](=O)[O-]	> 10000 nM
O=[N+]([O-])c1cc2c(Nc3cccc(Br)c3)ncnc2cc1Cl	> 10000 nM
CCOc1cc2ncnc(Nc3ccccc3)c2cc1OCC	> 10000 nM

Next, values leading:

IC50	SMILES
5000 nM	CCOc1cc2nc(C(C)C)nc(Nc3cccc(-c4csc(C)n4)c3)c2cc1OCC
4500 nM	COc1cc2nc(C)nc(Nc3cccc(Br)c3)c2cc1OC
1400 nM	CCOc1cc2nc(COC)nc(Nc3cccc(-c4csc(C)n4)c3)c2cc1OCC
> 10000 nM	CCOc1cc2nc(Cc3ccccc3)nc(Nc3cccc(Br)c3)c2cc1OCC
> 10000 nM	NC(=O)c1[nH]c2cc(Cl)cc(Cl)c2c1CCC(=O)O
930 nM	CCOc1cc2ncnc(Nc3cccc(-c4csc(C(N)=O)n4)c3)c2cc1OCC
> 10000 nM	O=C(O)CCc1c(C(=O)NO)[nH]c2cc(Cl)cc(Cl)c12
> 10000 nM	CCOc1cc2nc(CC(C)C)nc(Nc3cccc(Br)c3)c2cc1OCC
> 10000 nM	CCOc1cc2nc(-c3ccccc3)nc(Nc3cccc(Br)c3)c2cc1OCC
> 10000 nM	Cc1nc(-c2cccc(Nc3ncnc4cc5ccccc5cc34)c2)cs1
4000 nM	CCOc1cc2ncnc(Nc3cccc(-c4cnc(C)o4)c3)c2cc1OCC
1500 nM	CCOc1cc2nc(CC)nc(Nc3cccc(-c4csc(C)n4)c3)c2cc1OCC
1000 nM	CCOc1cc2nc(C)nc(Nc3cccc(-c4csc(C)n4)c3)c2cc1OCC
1700 nM	CCOc1cc2nc(CC(C)C)nc(Nc3cccc(-c4csc(C)n4)c3)c2cc1OCC
5300 nM	CCOc1cc2ncnc(Nc3ccc(Cl)c(-c4csc(C)n4)c3)c2cc1OCC
1300 nM	COc1cc2ncnc(Nc3cccc(Cl)c3)c2cc1OC [TYRPHOSTIN AG-1478]
530 nM	CCOc1cc2ncnc(Nc3ccc(F)c(Cl)c3)c2cc1OCC

IC50	SMILES
390 nM	CCOc1cc2ncnc(Nc3cccc(-c4cscn4)c3)c2cc1OCC
570 nM	COc1cc(-c2cccc(N)c2)c2oc(NS(=O)(=O)c3cc(Cl)ccc3Cl)nc2c1
640 nM	CCOc1cc2ncnc(Nc3cccc(-c4nc[nH]n4)c3)c2cc1OCC
1200 nM	CCOc1cc2c(Nc3cccc(-c4csc(C)n4)c3)ncnc2cc1OC
> 10000 nM	CCOc1cc2ncnc(Nc3cccc(-c4ccccc4)c3)c2cc1OCC
1500 nM	O=C(CCc1c(C(=O)O)[nH]c2cc(Cl)cc(Cl)c12)NO
> 10000 nM	CCOc1cc2ncnc(Nc3cccc(C#N)c3)c2cc1OCC
> 10000 nM	COCCOc1cc2ncnc(Nc3cccc(-c4csc(C)n4)c3)c2cc1OC
2200 nM	NC(=O)CCc1c(C(=O)O)[nH]c2cc(Cl)cc(Cl)c12
> 10000 nM	CCOc1cc2ncnc(Nc3cccc(C(C)=O)c3)c2cc1OCC
> 10000 nM	COc1cc2c(Nc3cccc(-c4csc(C)n4)c3)ncnc2cc1OC1CCCC1
2700 nM	O=C(O)c1[nH]c2cc(Cl)cc(Cl)c2c1CCCO
3600 nM	CCOc1cc2ncnc(Nc3cccc(-c4cocn4)c3)c2cc1OCC
> 10000 nM	CCCc1nc(-c2cccc(Nc3ncnc4cc(OCC)c(OCC)cc34)c2)cs1
7000 nM	COC(=O)CCc1c(C(=O)O)[nH]c2cc(Cl)cc(Cl)c12
480 nM	CCOc1cc2ncnc(Nc3cc(-c4csc(C)n4)ccc3F)c2cc1OCC
> 10000 nM	CCOc1cc2ncnc(Nc3cccc(C(=O)CBr)c3)c2cc1OCC
